Measurements from US6737383B1, “Herbicidal oxadiazolidines” (priority 1999, dated 2004).

Columns and labels:
sugar beet = experiment: Test B pre/postemergence sugar beet; type: in vivo, Beta vulgaris
Summary of the method: (§1)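 Response is a visual 0-to-10 score relative to untreated plants, where 0 means no effect and 10 means complete control, taken twelve to sixteen days after application. Treatments went onto soil at planting and onto foliage of 1- to 4-leaf plants, using a surfactant-containing non-phytotoxic solvent.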

smallflower flatsedge = experiment: Test B flood test smallflower flatsedge; type: in vivo, Cyperus difformis
Summary of the method: (§2)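 Flood test on plants grown to the 2-leaf stage; treated plants kept in greenhouse twelve to sixteen days, then visually rated against controls on a 0 (no effect) to 10 (complete control) scale.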

corn = experiment: Test B pre/postemergence corn; type: in vivo, Zea mays
Summary of the method: as §1

rice = experiment: Test B flood test rice; type: in vivo, Oryza sativa
Summary of the method: as §2

surinam grass = experiment: Test B pre/postemergence surinam grass; type: in vivo, Brachiaria decumbens
Summary of the method: as §1

giant foxtail = experiment: Test B pre/postemergence giant foxtail; type: in vivo, Setaria faberii
Summary of the method: as §1

cocklebur = experiment: Test B pre/postemergence cocklebur; type: in vivo, Xanthium strumarium
Summary of the method: as §1

bamyardgrass = experiment: Test B flood test barnyardgrass; type: in vivo, Echinochloa crus-galli
Summary of the method: as §2

velvetleaf = experiment: Test B pre/postemergence velvetleaf; type: in vivo, Abutilon theophrasti
Summary of the method: as §1

duck salad = experiment: Test B flood test duck salad; type: in vivo, Heteranthera limosa
Summary of the method: as §2

purple nutsedge = experiment: Test B pre/postemergence purple nutsedge; type: in vivo, Cyperus rotundus
Summary of the method: as §1

wheat = experiment: Test B pre/postemergence wheat; type: in vivo, Triticum aestivum
Summary of the method: as §1

bedstraw = experiment: Test B pre/postemergence bedstraw; type: in vivo, Galium aparine
Summary of the method: as §1

crabgrass = experiment: Test B pre/postemergence crabgrass; type: in vivo, Digitaria sanguinalis
Summary of the method: as §1

blackgrass = experiment: Test B pre/postemergence blackgrass; type: in vivo, Alopecurus myosuroides
Summary of the method: as §1

rape = experiment: Test B pre/postemergence rape; type: in vivo, Brassica napus
Summary of the method: as §1

soybean = experiment: Test B pre/postemergence soybean; type: in vivo, Glycine max
Summary of the method: as §1

[1] = Postemergence, Rate 62 g/ha, scale 0 to 10, 0 is no effect, 10 is complete control
[2] = Postemergence, Rate 250 g/ha, scale 0 to 10, 0 no effect, 10 complete control
[3] = Preemergence, Rate 62 g/ha, scale 0 to 10, 0 is no effect, 10 is complete control
[4] = Preemergence, Rate 125 g/ha, scale 0 to 10 (0 no effect, 10 complete control)
[5] = Preemergence, Rate 250 g/ha, scale of 0 to 10 where 0 is no effect and 10 is complete control
[6] = Preemergence, Rate 500 g/ha, scale 0 (no effect) to 10 (complete control)
[7] = Rate 125 g/ha, Postemergence, scale 0 to 10, 0 no effect, 10 complete control
[8] = Rate 125 g/ha, Postemergence section (flood test species), scale 0 to 10, 0 no effect, 10 complete control
[9] = flood test, listed under Postemergence, Rate 250 g/ha, scale 0 to 10, 0 no effect, 10 complete control
[10] = Rate 500 g/ha, Postemergence, 0 to 10 scale (0 no effect, 10 complete control)
[11] = Rate 500 g/ha, Postemergence section of Table B, 0 to 10 scale (0 no effect, 10 complete control)

CCN(CC)C(=O)n1oc(=O)n(-c2cc(Cl)cc(Cl)c2)c1=O [Compound 11]
Sugarbeets plant response rating (sugar beet; [1]): 0
Sugarbeets plant response rating (sugar beet; [2]): 0
Plant response rating, Sugarbeets (sugar beet; [3]): 0
Plant response rating, Sugarbeets (sugar beet; [4]): 0
Plant response rating, Sugarbeets (sugar beet; [5]): 0
Sugarbeets plant response rating (sugar beet; [6]): 0
Sugarbeets plant response rating (sugar beet; [7]): 0
S. Flatsedge plant response rating (smallflower flatsedge; [1]): 0
S. Flatsedge plant response rating (smallflower flatsedge; [8]): 0
S. Flatsedge plant response rating (smallflower flatsedge; [9]): 0
Corn plant response rating (corn; [1]): 0
Corn plant response rating (corn; [2]): 0
Plant response rating, Corn (corn; [3]): 0
Plant response rating, Corn (corn; [4]): 0
Plant response rating, Corn (corn; [5]): 0
Corn plant response rating (corn; [6]): 0
Corn plant response rating (corn; [7]): 0
Corn plant response rating (corn; [10]): 0
Rice plant response rating (rice; [1]): 0
Rice plant response rating (rice; [8]): 0
Rice plant response rating (rice; [11]): 0
Rice plant response rating (rice; [9]): 0
B. signalgrass plant response rating (surinam grass; [1]): 0
B. signalgrass plant response rating (surinam grass; [2]): 0
Plant response rating, B. signalgrass (surinam grass; [3]): 0
Plant response rating, B. signalgrass (surinam grass; [4]): 0
Plant response rating, B. signalgrass (surinam grass; [5]): 0
B. signalgrass plant response rating (surinam grass; [6]): 0
B. signalgrass plant response rating (surinam grass; [7]): 0
B. signalgrass plant response rating (surinam grass; [10]): 0
Giant foxtail plant response rating (giant foxtail; [1]): 0
Giant foxtail plant response rating (giant foxtail; [2]): 0
Plant response rating, Giant foxtail (giant foxtail; [3]): 0
Plant response rating, Giant foxtail (giant foxtail; [4]): 0
Plant response rating, Giant foxtail (giant foxtail; [5]): 0
Giant foxtail plant response rating (giant foxtail; [6]): 3
Giant foxtail plant response rating (giant foxtail; [7]): 0
Giant foxtail plant response rating (giant foxtail; [10]): 0
Cocklebur plant response rating (cocklebur; [1]): 0
Cocklebur plant response rating (cocklebur; [2]): 0
Plant response rating, Cocklebur (cocklebur; [3]): 0
Plant response rating, Cocklebur (cocklebur; [4]): 0
Plant response rating, Cocklebur (cocklebur; [5]): 0
Cocklebur plant response rating (cocklebur; [6]): 0
Cocklebur plant response rating (cocklebur; [7]): 0
Cocklebur plant response rating (cocklebur; [10]): 0
Barnyardgrass plant response rating (bamyardgrass; [1]): 0
Barnyardgrass plant response rating (bamyardgrass; [8]): 0
Barnyardgrass plant response rating (bamyardgrass; [11]): 0
Barnyardgrass plant response rating (bamyardgrass; [9]): 0
Velvetleaf plant response rating (velvetleaf; [1]): 0
Velvetleaf plant response rating (velvetleaf; [2]): 0
Plant response rating, Velvetleaf (velvetleaf; [3]): 0
Plant response rating, Velvetleaf (velvetleaf; [4]): 0
Plant response rating, Velvetleaf (velvetleaf; [5]): 0
Velvetleaf plant response rating (velvetleaf; [6]): 0
Velvetleaf plant response rating (velvetleaf; [7]): 0
Ducksalad plant response rating (duck salad; [1]): 0
Ducksalad plant response rating (duck salad; [8]): 0
Ducksalad plant response rating (duck salad; [11]): 0
Ducksalad plant response rating (duck salad; [9]): 0
Nutsedge plant response rating (purple nutsedge; [1]): 0
Nutsedge plant response rating (purple nutsedge; [2]): 0
Plant response rating, Nutsedge (purple nutsedge; [3]): 0
Plant response rating, Nutsedge (purple nutsedge; [4]): 0
Plant response rating, Nutsedge (purple nutsedge; [5]): 0
Nutsedge plant response rating (purple nutsedge; [6]): 0
Nutsedge plant response rating (purple nutsedge; [7]): 0
Nutsedge plant response rating (purple nutsedge; [10]): 0
Wheat plant response rating (wheat; [1]): 0
Wheat plant response rating (wheat; [2]): 0
Plant response rating, Wheat (wheat; [3]): 0
Plant response rating, Wheat (wheat; [4]): 0
Plant response rating, Wheat (wheat; [5]): 0
Wheat plant response rating (wheat; [6]): 0
Wheat plant response rating (wheat; [7]): 0
Bedstraw plant response rating (bedstraw; [1]): 0
Bedstraw plant response rating (bedstraw; [2]): 0
Plant response rating, Bedstraw (bedstraw; [3]): 0
Plant response rating, Bedstraw (bedstraw; [4]): 0
Plant response rating, Bedstraw (bedstraw; [5]): 0
Bedstraw plant response rating (bedstraw; [6]): 0
Bedstraw plant response rating (bedstraw; [7]): 0
Bedstraw plant response rating (bedstraw; [10]): 0
Crabgrass plant response rating (crabgrass; [1]): 0
Crabgrass plant response rating (crabgrass; [2]): 0
Plant response rating, Crabgrass (crabgrass; [3]): 0
Plant response rating, Crabgrass (crabgrass; [4]): 0
Plant response rating, Crabgrass (crabgrass; [5]): 0
Crabgrass plant response rating (crabgrass; [6]): 8
Crabgrass plant response rating (crabgrass; [7]): 0
Crabgrass plant response rating (crabgrass; [10]): 0
Blackgrass plant response rating (blackgrass; [1]): 0
Blackgrass plant response rating (blackgrass; [2]): 0
Plant response rating, Blackgrass (blackgrass; [3]): 0
Plant response rating, Blackgrass (blackgrass; [4]): 0
Plant response rating, Blackgrass (blackgrass; [5]): 0
Blackgrass plant response rating (blackgrass; [6]): 0
Blackgrass plant response rating (blackgrass; [7]): 0
Blackgrass plant response rating (blackgrass; [10]): 0
Rape plant response rating (rape; [1]): 0
Rape plant response rating (rape; [2]): 0
Plant response rating, Rape (rape; [3]): 0
Plant response rating, Rape (rape; [4]): 0
Plant response rating, Rape (rape; [5]): 0
Rape plant response rating (rape; [6]): 0
Rape plant response rating (rape; [7]): 0
Rape plant response rating (rape; [10]): 0
Soybean plant response rating (soybean; [1]): 0
Soybean plant response rating (soybean; [2]): 0
Plant response rating, Soybean (soybean; [3]): 0
Plant response rating, Soybean (soybean; [4]): 0
Plant response rating, Soybean (soybean; [5]): 0
Soybean plant response rating (soybean; [6]): 0
Soybean plant response rating (soybean; [7]): 0
